Tests used:
[1] = Physical properties of 5-ISMN (static electricity, flowability, sublimation, solubility); type: physicochemical; conditions: well-defined particle size fraction of 5-ISMN powder
[2] = Kinetics of release of the active principle in vitro as a function of pH; type: physicochemical; conditions: tablet according to the invention
Method: This study was carried out at pH values of 1.5, 4.25 and 7.2 and variable values.

[3] = In vivo absorption profile
[4] = plasma; recorded value; cited from earlier work
[5] = Kinetics of release in vitro (rotating paddle dissolution); type: physicochemical; conditions: composition according to the invention, 100 rpm/900 ml of water
Method: The study of the changes in the percentage of 5-ISMN dissolved was performed as a function of time. This test was carried out using a rotating paddle apparatus (100 rpm/900 ml of water).

[6] = cited from earlier work
[7] = Particle size by air-jet sieve (ALPIN JET SIEVE); type: physicochemical; conditions: for particle size fraction 100 μm to 250 μm: desired profile 20 to 50%; for particle size fraction 80 μm to 100 μm: desired profile 40 to 60%; for particle size fraction larger than 500 μm: desired profile ≤ 0.5%; for particle size fraction 250 μm to 500 μm: desired profile ≤ 5%
From the text: The air-Jet sieve method used according to the invention to define the particle size of the 5-ISMN is a technique widely used by those skilled in the art on account of its great sensitivity and reliability, and is consequently very familiar to them. The operating conditions employed in the context of the invention will be clarified in greater detail below.
Characterization of the particle size of the 5-ISMN used according to the invention by the air-jet sieve, type ALPIN JET SIEVE, method
350 g (sic) partial air vacuum,
time 4 min from 80 to 100 μm, then 3 mm (sic) from 250 to 500 μm.
Under these conditions, three batches of 5-ISMN, A, B and C, were tested.

Row | Compound | electrostatic phenomena [1] | flowability and compressibility [1] | tendency to sublime [1] | kinetic profiles of release at constant pH ([2]; pH 1.5, 4.25 and 7.2) | dissolution profile obtained at variable pH ([2]; variable pH) | constant mean flux of in vivo absorption ([3]; calculated from mean curve of percentages of 5-ISMN absorbed) [% h^-1] | absorption profile ([3]; mean curve for the percentages of 5-ISMN absorbed) | minimal effective concentration (Ceff) [4] [ng/mL] | % dissolved at 0.25 hour ([5]; 0.25 hour) | % dissolved at 1 hour ([5]; 1 hour) | % dissolved at 4 hours ([5]; 4 hours) | % dissolved at 8 hours ([5]; 8 hours) [%] | sublimation ([6]; 60° C., 75% relative humidity) | flowability ([6]; static electricity phenomenon, dry mixing) | solubility in water and buffer solutions ([6]; water and buffer solutions) | particle size fraction 100 μm to 250 μm [7] [%] | particle size fraction 80 μm to 100 μm [7] [%] | particle size fraction larger than 500 μm [7] [%] | particle size fraction 250 μm to 500 μm [7] [%]
1 | O=[N+]([O-])O[C@@H]1CO[C@H]2[C@@H]1OC[C@@H]2O [5-ISMN, isosorbide 5-mononitrate] | low level of electrostatic phenomena | qualities of flowability and compressibility | far less marked tendency to sublime | do not differ significantly from one another | pH-independent mode of release | ~13.37 | zero order entry up to approximately the fifth hour following administration | 100 | 5% to 20% | 20% to 40% | 60% to 80% | ≥ 80 | sublimation phenomenon | virtually zero flowability | very high solubility | – | – | – | –
2 | O=[N+]([O-])O[C@@H]1CO[C@H]2[C@@H]1OC[C@@H]2O [A, isosorbide 5-mononitrate] | – | – | – | – | – | – | – | – | – | – | – | – | – | – | – | 26 | 47.5 | 0.0 | 0.0
3 | O=[N+]([O-])O[C@@H]1CO[C@H]2[C@@H]1OC[C@@H]2O [B, isosorbide 5-mononitrate] | – | – | – | – | – | – | – | – | – | – | – | – | – | – | – | 34.4 | 48.2 | 0.0 | 0.9
4 | O=[N+]([O-])O[C@@H]1CO[C@H]2[C@@H]1OC[C@@H]2O [C, isosorbide 5-mononitrate] | – | – | – | – | – | – | – | – | – | – | – | – | – | – | – | 34.85 | 49.2 | 0.0 | 0.0

Reference: patent publication US5334393A, “Sustained-release tablet based on isosorbide 5-mononitrate and process for preparing it” (Pierre Fabre Medicament, priority 1990, dated 1994)
